Active and inactive are the calls of the source. The rule behind the calls is not given here.
How the values were obtained:
Staphylococcus aureus [1] = assay: Downregulation of glyQS expression level in Staphylococcus aureus at 6.25 uM incubated for 1 hr in absence of light irradiation; assay type: functional
Staphylococcus aureus [2] = assay: Downregulation of thrS expression level in Staphylococcus aureus at 6.25 uM incubated for 1 hr in absence of light irradiation; assay type: functional
Staphylococcus aureus [3] = assay: Downregulation of gltX expression level in Staphylococcus aureus at 6.25 uM incubated for 1 hr in absence of light irradiation; assay type: functional
Staphylococcus aureus [4] = assay: Downregulation of hisS expression level in Staphylococcus aureus at 6.25 uM incubated for 1 hr in absence of light irradiation; assay type: functional
Staphylococcus aureus [5] = assay: Downregulation of lysS expression level in Staphylococcus aureus at 6.25 uM incubated for 1 hr in absence of light irradiation; assay type: functional
Staphylococcus aureus [6] = assay: Downregulation of tyrS expression level in Staphylococcus aureus at 6.25 uM incubated for 1 hr in absence of light irradiation; assay type: functional
Staphylococcus aureus [7] = assay: Downregulation of valS expression level in Staphylococcus aureus at 6.25 uM incubated for 1 hr in absence of light irradiation; assay type: functional
Staphylococcus aureus [8] = assay: Downregulation of asnS expression level in Staphylococcus aureus at 6.25 uM incubated for 1 hr in absence of light irradiation; assay type: functional
Staphylococcus aureus [9] = assay: Downregulation of ileS expression level in Staphylococcus aureus at 6.25 uM incubated for 1 hr in absence of light irradiation; assay type: functional
Cell membrane [10] = assay: Induction of cell membrane damage in Staphylococcus aureus assessed as DNA leakage at 10 uM preincubated with compound for 20 mins followed by 600 nm light irradiation for 45 min by absorption based plate reader analysis; assay type: subcellular; details: time 65.0 min
Cell membrane [11] = assay: Induction of cell membrane damage in Staphylococcus aureus assessed as RNA leakage at 10 uM preincubated with compound for 20 mins followed by 600 nm light irradiation for 45 min by absorption based plate reader analysis; assay type: subcellular; details: time 65.0 min
Cell membrane [12] = assay: Induction of cell membrane damage in Staphylococcus aureus assessed as protein leakage at 10 uM preincubated with compound for 20 mins followed by 600 nm light irradiation for 45 min by absorption based plate reader analysis; assay type: subcellular; details: time 65.0 min
Cell membrane [13] = assay: Induction of cell membrane damage in Pseudomonas aeruginosa assessed as DNA leakage at 10 uM preincubated with compound for 20 mins followed by 600 nm light irradiation for 45 min by absorption based plate reader analysis; assay type: subcellular; details: time 65.0 min
Cell membrane [14] = assay: Induction of cell membrane damage in Pseudomonas aeruginosa assessed as RNA leakage at 10 uM preincubated with compound for 20 mins followed by 600 nm light irradiation for 45 min by absorption based plate reader analysis; assay type: subcellular; details: time 65.0 min
Cell membrane [15] = assay: Induction of cell membrane damage in Pseudomonas aeruginosa assessed as protein leakage at 10 uM preincubated with compound for 20 mins followed by 600 nm light irradiation for 45 min by absorption based plate reader analysis; assay type: subcellular; details: time 65.0 min
Cell membrane [16] = assay: Induction of cell membrane damage in Pseudomonas aeruginosa assessed as bacterial cell shrinkage at 10 uM preincubated with compound for 20 mins followed by 600 nm light irradiation for 45 min by SEM analysis; assay type: subcellular; details: time 65.0 min
Cell membrane [17] = assay: Induction of cell membrane damage in Pseudomonas aeruginosa assessed as bacterial cell collapse at 10 uM preincubated with compound for 20 mins followed by 600 nm light irradiation for 45 min by SEM analysis; assay type: subcellular; details: time 65.0 min
Cell membrane [18] = assay: Induction of cell membrane damage in Staphylococcus aureus assessed as bacterial cell shrinkage at 10 uM preincubated with compound for 20 mins followed by 600 nm light irradiation for 45 min by SEM analysis; assay type: subcellular; details: time 65.0 min
Cell membrane [19] = assay: Induction of cell membrane damage in Staphylococcus aureus assessed as bacterial cell collapse at 10 uM preincubated with compound for 20 mins followed by 600 nm light irradiation for 45 min by SEM analysis; assay type: subcellular; details: time 65.0 min
Staphylococcus aureus [20] = assay: Downregulation of hlgB protein expression in Staphylococcus aureus under light irradiation; assay type: functional
Staphylococcus aureus [21] = assay: Downregulation of hlgC protein expression in Staphylococcus aureus under light irradiation; assay type: functional
Staphylococcus aureus [22] = assay: Downregulation of ssl7 protein expression in Staphylococcus aureus under light irradiation; assay type: functional
Staphylococcus aureus [23] = assay: Downregulation of cell wall organization related proteins in Staphylococcus aureus under light irradiation; assay type: functional, organism-based
[24] = Cytotoxicity against human HFF-1 cells assessed as cell viability at 40 uM in presence of 600 nm light irradiation for 45 mins by MTT assay relative to control; assay type: toxicity, cell-based; details: read-out: Activity
Staphylococcus aureus [25] = assay: (§1) In vivo antibacterial activity against methicillin-resistant Staphylococcus aureus ATCC 43300 infected in female BALB/c mouse skin wound infection model assessed as reduction in wound area at 90 uM pre-infected with bacteria for 24 hrs followed by topical compound addition for 10 mins in presence of 600 nm 60 mW/cm2 light irradiation for 15 mins and measured on day 4; assay type: functional, organism-based; details: time 4.0 day
Pseudomonas aeruginosa [26] = assay: as §1, with “Pseudomonas aeruginosa” for “Staphylococcus aureus”, “27853” for “43300”; assay type: functional, organism-based; details: time 4.0 day
Staphylococcus aureus [27] = assay: (§2) In vivo antibacterial activity against methicillin-resistant Staphylococcus aureus ATCC 43300 infected in female BALB/c mouse skin wound infection model assessed as reduction in inflammatory cell infiltration in wound at 90 uM pre-infected with bacteria for 24 hrs followed by topical compound addition for 10 mins in presence of 600 nm 60 mW/cm2 light irradiation for 15 mins and measured on day 6 by H and E staining based analysis; assay type: functional, organism-based; details: time 6.0 day
Staphylococcus aureus [28] = assay: as §2, with “Masson trichrome” for “H and E”; assay type: functional, organism-based; details: time 6.0 day
Staphylococcus aureus [29] = assay: as §2, with “collagen deposition” for “reduction in inflammatory cell infiltration”; assay type: functional, organism-based; details: time 6.0 day
Staphylococcus aureus [30] = assay: as §2, with “collagen deposition” for “reduction in inflammatory cell infiltration”, “Masson trichrome” for “H and E”; assay type: functional, organism-based; details: time 6.0 day
Pseudomonas aeruginosa [31] = assay: Antibiofilm activity against Pseudomonas aeruginosa assessed as bacterial eradication by measuring green fluorescence signal at 10 uM incubated for 1 hrs in presence of light irradiation by calcein-AM fluorescence dye based analysis; assay type: functional, organism-based
Staphylococcus aureus [32] = assay: Antibiofilm activity against Staphylococcus aureus assessed as bacterial eradication by measuring green fluorescence signal at 10 uM incubated for 1 hrs in presence of light irradiation by calcein-AM fluorescence dye based analysis; assay type: functional, organism-based
Staphylococcus aureus [33] = assay: Selective drug uptake in Staphylococcus aureus co-cultured with human HFF-1 cells by measuring fluorescence signal at 10 uM incubated for 20 mins; assay type: ADME, organism-based; details: hff-1, 20 min
[34] = Drug uptake in human HFF-1 cells co-cultured with Staphylococcus aureus by measuring fluorescence signal at 10 uM incubated for 20 mins; assay type: ADME, cell-based; details: hff-1, 20 min
Pseudomonas aeruginosa [35] = assay: Selective drug uptake in Pseudomonas aeruginosa co-cultured with human HFF-1 cells by measuring fluorescence signal at 10 uM incubated for 20 mins; assay type: ADME, organism-based; details: hff-1, 20 min

**Q.** For `C#CCC[n+]1c(/C=C/c2ccc(-c3ccc(N(c4ccc(OCCC[N+](C)(C)C)cc4)c4ccc(OCCC[N+](C)(C)C)cc4)cc3)s2)sc2ccccc21.[Br-].[Br-].[Br-]`, which Activity (Staphylococcus aureus [1]) is on record?
**A.** Its Activity is “Active”.

**Q.** What about the Activity (Staphylococcus aureus [2]) of the same molecule?
**A.** The Activity was “Active”.

**Q.** What about the Activity (Staphylococcus aureus [3]) of the same molecule?
**A.** The Activity was “Active”.

**Q.** And the Activity (Staphylococcus aureus [4])?
**A.** Its Activity is “Active”.

**Q.** What about the Activity (Staphylococcus aureus [5]) of the same molecule?
**A.** Its Activity is “Active”.

**Q.** What about the Activity (Staphylococcus aureus [6]) of the same molecule?
**A.** Its Activity is “Active”.

**Q.** And the Activity (Staphylococcus aureus [7])?
**A.** The Activity was “Active”.

**Q.** And the Activity (Staphylococcus aureus [8])?
**A.** The Activity was “Active”.

**Q.** And the Activity (Staphylococcus aureus [9])?
**A.** Its Activity is “Active”.

**Q.** And the Activity (Cell membrane [10])?
**A.** The Activity was “Active”.

**Q.** And the Activity (Cell membrane [11])?
**A.** Its Activity is “Active”.

**Q.** What about the Activity (Cell membrane [12]) of the same molecule?
**A.** The Activity was “Active”.

**Q.** And the Activity (Cell membrane [13])?
**A.** The Activity was “Active”.

**Q.** And the Activity (Cell membrane [14])?
**A.** The Activity was “Active”.

**Q.** And the Activity (Cell membrane [15])?
**A.** The Activity was “Active”.

**Q.** And the Activity (Cell membrane [16])?
**A.** Its Activity is “Active”.

**Q.** What about the Activity (Cell membrane [17]) of the same molecule?
**A.** The Activity was “Active”.

**Q.** And the Activity (Cell membrane [18])?
**A.** Its Activity is “Active”.

**Q.** And the Activity (Cell membrane [19])?
**A.** Its Activity is “Active”.

**Q.** What about the Activity (Staphylococcus aureus [20]) of the same molecule?
**A.** Its Activity is “Active”.

**Q.** And the Activity (Staphylococcus aureus [21])?
**A.** The Activity was “Active”.

**Q.** And the Activity (Staphylococcus aureus [22])?
**A.** The Activity was “Active”.

**Q.** What about the Activity (Staphylococcus aureus [23]) of the same molecule?
**A.** Its Activity is “Active”.

**Q.** What about the viability at 0.75 h, 40 µM [24] of the same molecule?
**A.** The viability at 0.75 h, 40 µM was under 90%.

**Q.** What about the Activity (Staphylococcus aureus [25]) of the same molecule?
**A.** The Activity was “Active”.

**Q.** And the Activity (Pseudomonas aeruginosa [26])?
**A.** Its Activity is “Active”.

**Q.** What about the Activity (Staphylococcus aureus [27]) of the same molecule?
**A.** Its Activity is “Active”.

**Q.** And the Activity (Staphylococcus aureus [28])?
**A.** The Activity was “Active”.

**Q.** And the Activity (Staphylococcus aureus [29])?
**A.** The Activity was “Active”.

**Q.** And the Activity (Staphylococcus aureus [30])?
**A.** The Activity was “Active”.

**Q.** What about the Activity (Pseudomonas aeruginosa [31]) of the same molecule?
**A.** The Activity was “Active”.

**Q.** What about the Activity (Staphylococcus aureus [32]) of the same molecule?
**A.** The Activity was “Active”.

**Q.** What about the Drug uptake (Staphylococcus aureus [33]) of the same molecule?
**A.** The Drug uptake was “Active”.

**Q.** What about the Drug uptake [34] of the same molecule?
**A.** The Drug uptake was “Not_active”.

**Q.** And the Drug uptake (Pseudomonas aeruginosa [35])?
**A.** Its Drug uptake is “Active”.

Reference: ChEMBL document CHEMBL6134849, “A Water-Soluble Aggregation-Induced Emission Photosensitizer with Intrinsic Antibacterial Activity as an Antiplanktonic and Antibiofilm Therapeutic Agent” (J Med Chem, 2025)
